pIC50: −log10 of the molar value. Counter-ions that a name gives are not always drawn. Like-named read-outs stand apart in the source and are kept apart here.
Key:
mice = assay: Formalin test (antinociceptive activity); format: in vivo; conditions: for Early Response / Late Response: formalin test, dose 10-30 mg/Kg i.p.; for Early Response: early response 0-5 min; for Late Response: late response 20-30 min
Experimental: The chemical irritant formalin test is used as a chronic pain model in animals. The s.c. administration of formalin to the paw of a mouse produces a biphasic nociceptive behavioral response, an early response (0-5 min after injection) and a late response (20-30 min after injection) (Hunskaar, S., Fasmer, O.B., Hole, K. Formalin test in mice, a useful technique for evaluating mild analgesics. J Neurosci Methods, 1985 ;14(1):69-76).
Aspirine and paracetamol are included as external active references in early and late response. Table 12. Early and late response inhibition in the formalin test.

COX-2 = target: T1, COX-2 (Homo sapiens, UniProt P35354); assay: COX-2 inhibition (PGE2 enzyme immunoassay); format: biochemical; conditions: read-out: % COX-2 inhibition
T1 construct: host or cells: Sf21 insect cells
T1 sequence (P35354 18-604): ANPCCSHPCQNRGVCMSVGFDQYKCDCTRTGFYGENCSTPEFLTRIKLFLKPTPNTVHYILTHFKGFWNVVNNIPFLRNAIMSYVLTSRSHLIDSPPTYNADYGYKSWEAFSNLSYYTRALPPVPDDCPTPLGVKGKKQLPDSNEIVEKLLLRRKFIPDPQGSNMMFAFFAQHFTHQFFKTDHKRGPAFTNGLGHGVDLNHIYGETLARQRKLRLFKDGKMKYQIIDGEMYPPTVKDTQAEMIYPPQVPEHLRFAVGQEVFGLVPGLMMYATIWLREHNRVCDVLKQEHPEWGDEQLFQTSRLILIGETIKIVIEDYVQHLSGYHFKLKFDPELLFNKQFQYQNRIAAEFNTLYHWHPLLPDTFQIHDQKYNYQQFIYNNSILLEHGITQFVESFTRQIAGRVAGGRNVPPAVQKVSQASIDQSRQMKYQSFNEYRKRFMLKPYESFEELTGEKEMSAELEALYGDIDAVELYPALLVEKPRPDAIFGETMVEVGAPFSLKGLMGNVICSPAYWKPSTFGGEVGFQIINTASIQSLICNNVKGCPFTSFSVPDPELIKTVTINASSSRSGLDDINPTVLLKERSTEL
Experimental: The COX-1 inhibitory activity of representative compounds of the invention was determined according to previously reported methods. COX-1 activity was assessed in human platelets using 100 µM arachidonic acid as a substrate and preincubation and incubation times of 15 min at 37 °C in HBSS, 15 mM HEPES pH 7.4 . The quantification method used was enzyme immunoassay determination of PGE2 (Chan, C.C. et al. J Pharmacol Exp Ther, 1999, 290, 551-560; Swinney, D.C. et al. J Biol Chem, 1997, 272, 12393-12398; Warner, T.D. et al. Proc Natl Acad Sci U S A, 1999, 96, 7563-7568; Riendeau, D. et al. Can J Physiol Pharmacol, 1997, 75, 1088-1095). COX-2 inhibitory activity was determined in human recombinant insect Sf21 cells according to references (Warner, T.D. et al., Proc Natl Acad Sci, USA. 1999;96(13):7563-7568; Riendeau, D. et al., Can J Physiol Pharmacol, 1997 ;75(9):1088-1095). Briefly, the COX-2 inhibitory activity was assessed on human recombinant insect Sf21 cells using 0.3 µM arachidonic acid as a substrate and preincubation and incubation times of 15 and 5 min, respectively, at 37 °C in 100 mM Tris-HCl, pH 7.7. The quantification method used was enzyme immunoassay determination of PGE2. Table 11. Inhibition of COX-1 and COX-2 at 10 µM

tumor melanoma B16-FO = assay: Tumor cell proliferation assay (alamarBlue); format: cell-based, murine; conditions: Mus musculus
Experimental: Changes in cell proliferation were detected based on the ability of viable cells to cause alamarBlue® to change its oxidized (non-fluorescent, blue) to a reduced (fluorescent, red) form. The alamarBlue® reaction allows the quantification of cell proliferation and examination of the metabolic activity of viable cells. Test substances were examined for activity on the proliferation of human or murine tumor cell lines at assay concentrations from 0.01 to 100 µM.

[1] = target: T2, Gonadotrophin-releasing hormone receptors (GnRH, LH-RH)R (Homo sapiens, UniProt P30968); assay: GnRH radioligand binding assay; conditions: read-out: % Inhibition at 10 µM
T2 construct: expressed in transfected cells; host or cells: Chem-1 cells
T2 sequence (P30968 1-328): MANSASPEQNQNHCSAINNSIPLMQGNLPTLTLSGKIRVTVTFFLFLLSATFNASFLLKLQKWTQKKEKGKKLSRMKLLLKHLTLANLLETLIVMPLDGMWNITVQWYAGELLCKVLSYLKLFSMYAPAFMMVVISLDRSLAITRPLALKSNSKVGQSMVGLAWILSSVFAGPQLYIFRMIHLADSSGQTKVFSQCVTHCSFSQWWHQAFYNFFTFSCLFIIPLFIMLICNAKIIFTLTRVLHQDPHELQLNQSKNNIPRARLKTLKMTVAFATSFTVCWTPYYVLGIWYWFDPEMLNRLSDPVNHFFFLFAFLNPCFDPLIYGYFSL
Text: Gonadotrophin-releasing hormone receptors (GnRH, LH-RH)R are a family of G protein-coupled receptors for GnRH, which promotes the secretion of luteinizing hormone (LH) and follicle-stimulating hormone (FSH). The activation of this receptor promotes, through estrogen receptors (ER) located in the cytosol, an increase in gene transcription and activation of tumor suppressor genes, DNA repair, cell division and cell proliferation. GnRH agonists are useful in breast, prostate and ovarian cancer, endometriosis, melanoma, rheumatoid arthritis and Alzheimer's disease. Table 17 presents the results from radioligand binding studies for GnRH for selected compounds using human recombinant Chem-1 cells (Halmos G, Schally AV, Pinski J, Vadillo-Buenfill M, Groot K. Down regulation of pituitary receptors for luteinizing hormone-releasing hormone (LH-RH) in rats by LH-RH antagonist Cetrorelix. Prco Natl Acad Sci USA 1996;93(6):2398-2402). The specific and non specific ligands used were [^125l] [D-Trp^6]-LH-RH (0.05 nM) and [D-Trp^6]-LH-RH ([…]) and after 60 min of incubation at 25°C in a 50 mM HEPES, pH 7.5, 5 mM MgCl2, 1 mM CaCl2, and 0.2% BSA the activity was measured by radioligand binding. Table 17. GnRH radioligand binding assay

[2] = tumor melanoma B16-FO, read-out: IC50

Row | Compound | antinociceptive activity in the formalin test (mice; 30 mg/kg i.p, early and late phases, potency similar to morphine 10 mg/kg i.p.) | Early Response (mice) | Late Response (mice) | inhibition at 10 µM (COX-2; at 10 µM) | pIC50 (tumor melanoma B16-FO; [2]) | inhibition at 10 µM ([1]; GnRH radioligand binding, 10 µM) | inhibition at 10 µM (COX-2) | pIC50 (tumor melanoma B16-FO) | inhibition at 10 µM [1]
1 | C=CCc1ccc(O)c(-c2cc(CC=C)ccc2OC(CCNC)c2ccccc2)c1.Cl (stereo not shown) [Example 1, 5,5'-Diallyl-2'-[3-(methylamino)-1-phenylpropoxy]biphenyl-2-ol hydrochloride] | relevant antinociceptive activity | slightly active | active | 0% | 5.72 | 50% |  |  | 
2 | C=CCc1ccc(O)c(-c2ccc(OC(CCNC)c3ccccc3)c(CC=C)c2)c1 (stereo not shown) [Example 5, 3',5-Diallvl-4'-13-(methylamino)-1-phenylpropoxy]biphenyl-2-ol hydrochloride] |  | slightly active | Active |  |  |  | 0% | 5.80 | 37%
3 | C=CCc1ccc(O)c(-c2ccc(O)c(CC=C)c2)c1 [Honokiol, reference compound] |  |  |  | 79% | 4.52 |  |  |  | 

— patent EP2423181A1, “Multitarget substituted biphenyl diol derivatives” (PROUS INSTITUTE FOR BIOMEDICAL RESEARCH S.A., priority 2010, dated 2012)
